Test results reported in patent US20250109127A1, “METHODS OF USE OF PHENOXYPROPYLAMINE COMPOUNDS TO TREAT DEPRESSION” (Minerva Neurosciences, Inc., priority 2013, published 2025).
Where “and” joins values, the source holds several entries; their conditions need not be identical. Equal entries are not always repeated. Structures can show the parent of a compound that is named as a salt.

System: dopamine release in the rat prefrontal cortex
Test: Microdialysis: dopamine release in prefrontal cortex after I.P. administration
Format: in vivo
Conditions: for Dopamine release, individual animals / Dopamine release, MEAN: 0.3 mg/kg I.P.; for Dopamine release, individual animals: one column per animal R#11,12,18,23,29,30,17,24, hydrochloride; for Dopamine release, MEAN / DOPAMINE (% of respective basal) MEAN: n = 8; for DOPAMINE (% of respective basal) MEAN: SON-117 group 0.1 mg/kg I.P.
Method: The aim of the study was to evaluate, using microdialysis, the effects of an intraperitoneal (I.P.) administration in rats of three different doses of SON-117 on dopamine and its metabolites, serotonin and its metabolite (5-HIAA), and norepinephrine levels in prefrontal cortex.
Thirty-two adult male Wistar rats were used for the whole study (4 groups of eight animals planned for the study, Table 1).
Surgery was performed on rats weighing about 300 g at the beginning of the experiments. Rats were anaesthetized with Ketamine (50 mg/kg) & Xylazine (15 mg/kg) by intramuscular administration. The animals were placed in a stereotaxic apparatus in the flat-skull position at a constant setting of −3.3 mm between ear bars and the incisor bar. The animals were treated with a local anesthesic (xylocaine 1%, Astra Zeneca) and an analgesic (Temgesic, from Schering Plough, 0.05 mg/kg, s.c.). A rostrocaudal midline incision was made with a lancet to expose the dorsal skull surface. The “stereotaxic zero” was defined by the Bregma in accordance with Paxinos and Watson's atlas (1986). A hole was drilled in the skull with a drill and the meninges were pierced with a sterile needle to implant a CMA12 guide cannula which later received the dialysis probe.
Coordinates used for implanting guide cannula in prefrontal cortex from Bregma were anteroposterior 3.7 mm, mediolateral 0.8 mm, and dorsoventral −2 mm (top of the probe was at −5 mm). The guide cannula was fixed to the skull with two stainless steel screws (1.88 mm outside diameter) anchored. An application of dental cement was added. A plastic collar allowed each animal to be tethered to a Swivel assembly of the CMA 120 awake animal system. Following surgery, rats were kept in individual cages and allowed to recover for a minimum of 3-5 days before the experimentation. The rats were handled and put in plastic bowl for 10 min at least every day to habituate the animals to their new environment for the dialysis. An I.P. administration with saline was also performed every day.
Dialysis probes (CMA12/3 mm, membrane, 20 kD cut-off, Carnegie Medicine, Stockholm, Sweden), were carefully washed before inserting into the guide cannula. The wash was performed with the artificial cerebrospinal fluid (aCSF) medium (NaCl 147 mM, KCl 2.7 mM, CaCl2 1.2 mM, MgCl2 0.85 mM) at room temperature. The dialysis system was then equilibrated at 20° C. at a perfusion rate of 1 μl/min with a Carnegie pump (CMA100). All catheters (FEP tubing, internal volume of 1.2 μl/10 cm, and tubing adaptors) used for microdialysis were treated in the same conditions.
The probes duly prepared were inserted into the guide cannula and the CMA120 Swivel assembly secured to the animal using a plastic collar. Flow through the dialysis probe with aCSF was maintained at a rate of 1 μl/min during the whole experimentation. The first four fractions (corresponding to 2 hours) were discarded to avoid the effects of parenchymal disturbance and to ensure that an approximate steady-state level was reached. Fractions were then collected over a period of 8.5 h during which time the animals remained quiet. The dialysates were automatically collected with an autosampler (microfraction collector CMA 140, Carnegie Medicin) and stored at −80° C. until analysis. […] Perfusion was then maintained for 7 hours with aCSF. The dialysates (30 μl) were collected into 300 μl vials, transferred into dry ice and then kept frozen (−80° C.) until analysis. Frozen samples were shipped to a partner for analysis. At the end of the microdialysis study, a PBS with colored ink was perfused through the probe in order to visualize the dialyzed area.
Catecholamine assay: Concentrations of dopamine, DOPAC, HVA, 5-HIAA, 5-HT, and norepinephrin were determined for each sample by HPLC coupled with electrochemical detection.

[1] = T-30 min-T0 (before administration)
[2] = T-1 h 30-T-1 h (before administration)
[3] = T-1 h-T-30 min (before administration)

SMILES: Cc1nnc(-c2cc3c(OC[C@@H](O)CN4CCC(c5ccc(Cl)c(Cl)c5)CC4)cccc3o2)o1 [SON-117, (S)-1-(4-(3,4-dichlorophenyl)piperidino)-3-(2-(5-methyl-1,3,4-oxadiazol-2-yl)benzo(b)furan-4-yloxy)-2-propanol hydrochloride]
- Dopamine release, individual animals (T5 h 30-T6 h): 1190.31 % of respective basal and 66.72 % of respective basal and 285.31 % of respective basal and 29.48 % of respective basal and 247.57 % of respective basal and 111.91 % of respective basal and 52.03 % of respective basal and 128.48 % of respective basal
- Dopamine release, MEAN (T5 h-T5 h 30): 263.19 % of respective basal
- Dopamine release, individual animals (T5 h-T5 h 30): 611.23 % of respective basal and 37.39 % of respective basal and 1036.44 % of respective basal and 30.12 % of respective basal and 108.05 % of respective basal and 81.56 % of respective basal and 80.36 % of respective basal and 120.37 % of respective basal
- Dopamine release, MEAN (T6 h 30-T7 h): 297.55 % of respective basal
- Dopamine release, individual animals (T6 h 30-T7 h): 331.87 % of respective basal and 230.42 % of respective basal and 224.57 % of respective basal and 11.34 % of respective basal and 202.06 % of respective basal and 117.28 % of respective basal
- Dopamine release, MEAN (T6 h-T6 h 30): 267.65 % of respective basal
- Dopamine release, individual animals (T6 h-T6 h 30): 879.91 % of respective basal and 122.45 % of respective basal and 101.84 % of respective basal and 10.68 % of respective basal and 188.10 % of respective basal and 103.08 % of respective basal and 135.89 % of respective basal and 599.24 % of respective basal
- Dopamine release, MEAN [1]: 100.22 % of respective basal
- Dopamine release, MEAN [2]: 104.26 % of respective basal
- Dopamine release, MEAN [3]: 98.66 % of respective basal
- dopamine levels, increase (not statistically significant) (SON-117 0.1 mg/kg I.P., from 4.5 h to 7 h): 353%
- dopamine levels, increase (not statistically significant) (SON-117 0.1 mg/kg I.P., from T1.5 h and 2.5 h): 287%
- dopamine levels, increase (not statistically significant) (SON-117 0.3 mg/kg I.P., from 5.5 h to 7 h): 298%
- dopamine levels, slight increase (not statistically significant) (SON-117 3 mg/kg IP, at 1.5 h): 169%
- dopamine levels, slight increase, max. (not statistically significant) (SON-117 3 mg/kg IP, from 6 h to 7 h): 167%
- release of dopamine, trend (SON-117 0.1 and 0.3 mg/kg, from 5.5 h): trend for an increased release
- dopamine, difference to the citalopram group (two-way ANOVA) (SON-117 at the three doses tested, in function of time): no significant differences
- DOPAMINE (% of respective basal) MEAN (T0-T30 min): 133.37 % of respective basal
- DOPAMINE (% of respective basal) MEAN (T30-T1 h): 103.29 % of respective basal
- DOPAMINE (% of respective basal) MEAN (T1 h 30-T2 h): 151.81 % of respective basal
- DOPAMINE (% of respective basal) MEAN (T1 h-T1 h 30): 123.06 % of respective basal
- DOPAMINE (% of respective basal) MEAN (T2 h 30-T3 h): 138.45 % of respective basal
- DOPAMINE (% of respective basal) MEAN (T2 h-T2 h 30): 286.96 % of respective basal
- DOPAMINE (% of respective basal) MEAN (T3 h 30-T4 h): 155.83 % of respective basal
- DOPAMINE (% of respective basal) MEAN (T3 h-T3 h 30): 150.01 % of respective basal
- DOPAMINE (% of respective basal) MEAN (T4 h 30-T5 h): 240.84 % of respective basal
- DOPAMINE (% of respective basal) MEAN (T4 h-T4 h 30): 215.81 % of respective basal
- DOPAMINE (% of respective basal) MEAN (T5 h 30-T6 h): 188.21 % of respective basal
- DOPAMINE (% of respective basal) MEAN (T5 h-T5 h 30): 183.94 % of respective basal
- DOPAMINE (% of respective basal) MEAN (T6 h 30-T7 h): 353.25 % of respective basal
- DOPAMINE (% of respective basal) MEAN (T6 h-T6 h 30): 226.43 % of respective basal
- DOPAMINE (% of respective basal) MEAN [1]: 105.18 % of respective basal
- DOPAMINE (% of respective basal) MEAN [2]: 100.9 % of respective basal
- DOPAMINE (% of respective basal) MEAN [3]: 91.46 % of respective basal
